Data on 1 compound can be found in PMC9306920 (Clinical Pharmacology in Drug Development, 2022).

The subject of one data set is healthy subjects. Kind of data set: Thorough QT study: cardiodynamic ECG assessment. Format: in vivo, human.
Data set [1] can be described thus: Plasma pharmacokinetics in thorough QT study. Format: in vivo, human. Particulars: moxifloxacin 400 mg single oral dose.

Consider `COc1c(N2C[C@@H]3CCCN[C@@H]3C2)c(F)cc2c(=O)c(C(=O)O)cn(C3CC3)c12` [Moxifloxacin], for which the “Subjects with QTcF of >450 milliseconds or ΔQTcF of >30 milliseconds” value with healthy subjects (any treatment, any time point) is given as “No subject”. The U-wave presence entry with healthy subjects (during the study) is recorded as “No U‐wave observations”. The “Largest LS mean ΔQRS” value in the data set with healthy subjects (moxifloxacin 400 mg, 0.5, 1, and […] after dosing) stood at 0.2 milliseconds. Also, in the data set with healthy subjects (moxifloxacin 400 mg, 2 hours after dosing), the “Largest LS mean ΔΔQTcF” value turned out to be 12.9 milliseconds. Also, in the data set with healthy subjects (moxifloxacin 400 mg, 3 hours after dosing), the “Peak LS mean ΔQTcF” value turned out to be 9.2 milliseconds. The “Largest LS mean ΔHR” value in the data set on healthy subjects (moxifloxacin 400 mg, 6 hours after dosing) is 8.7 bpm. The “Frequencies of flat, notched, and biphasic T-wave morphologies” value with healthy subjects (versus placebo) is on record as “lower than or the same as for placebo”. For the same compound, in data set [1], the “Time at which plasma concentration reached its maximal value” was 2 h and the “Time plasma concentration remained detectable” value is 72 h.
